Results taken from patent US20190142835A1, “INHIBITION OF AUTOPHAGY USING PHOSPHOLIPASE A2 INHIBITORS” (OREGON HEALTH & SCIENCE UNIVERSITY, priority 2017, published 2019).

Columns and labels:
SN12C cells = assay: Apoptosis (Caspase 3/7-Glo), SN12C; format: cell-based, human; settings: 72 h
Description: Apoptosis was determined using Caspase 3/7-Glo assay kit (Promega) following the manufacturer's instructions. Briefly, 2000 cells per well were plated in 96 well plates and cultured for 72 h. […] Caspase 3/7 activity was measured using a luminometer. Luminescence values were normalized by cell numbers.

[1] = tested on: human RCC cells (ACHN and SN12C); assay: Phosphoproteomics screen and kinase substrate enrichment analysis; format: cell-based; settings: phosphoproteome
Description: Enriched phospho-peptides were digested with trypsin and analyzed by mass spectroscopy following the published “Cell Signaling Technology” protocol.
MS raw files were analyzed via MaxQuant version 1.5.3.30 [73] and MS/MS fragmentation spectra were searched using Andromeda against human canonical and isoform sequences in Swiss-Prot (downloaded in September 2016 from http://uniprot.org). Quantitative phosphopeptide data were log10 transformed and missing data were imputed before applying quantile normalization as previously described. Hierarchical clustering was performed on the Cluster 3.0 program, using distance that is based on the Pearson correlation and applying pairwise average linkage analysis. Java Treeview was used to visualize clustering results.
Kinase substrate enrichment analysis (KSEA) was performed as previously described. […] Permutation analysis was conducted to calculate statistical significance. The normalized enrichment score was calculated by dividing the enrichment score by the average of the absolute values of all enrichment scores from the permutation analysis.

ACHN cells = assay: Transcriptomic analysis with gene set enrichment (GSEA); format: cell-based, human
[2] = tested on: human RCC and MPN cell lines; assay: Growth effect of treatment in RCC and MPN cell lines; format: cell-based; settings: multiple human RCC and MPN cell lines
glycolysis = assay: Glucose uptake and lactate excretion as readouts for glycolysis; format: cell-based, human; settings: in vitro
Description: The PI3K-AKT-mTOR pathway regulates multiple steps in glucose uptake and metabolism.

[3] = tested on: PI3K, mTORC1 and mTORC2 signaling; assay: Western blotting of PI3K-AKT-mTOR signaling; format: cell-based, human
Description: Cells were plated in 6 well dishes and treated the following day with the indicated agents. Treatments were for 24 hours, after which cells were washed with ice cold PBS and lysed with RIPA buffer (Sigma). Phosphatase inhibitor cocktail set II and protease inhibitor cocktail set III (EMD Millipore) were added at the time of lysis. Lysates were centrifuged at 15,000 g×10 min at 4 degrees C. Protein concentrations were calculated based on a BCA assay (Thermo Scientific) generated standard curve. Proteins were resolved using the NuPAGE Novex Mini Gel system on 4% to 12% Bis-Tris Gels (Invitrogen). For western blotting, equal amounts of cell lysates (15-20 μg of protein) were resolved with SDSPAGE, and transferred to membranes. The membrane was probed with primary antibodies, washed, and then incubated with corresponding fluorescent secondary antibodies and washed. The fluorescent signal was captured using LI-COR (Lincoln, Nebr.) Odyssey Imaging System, and fluorescent intensity was quantified using the Odyssey software where indicated. The following antibodies were used for Western blots: p-S6 (S240/244), S6, LC3B, p-Akt(S473), p-Akt(T308), Akt, cleaved caspase3 (Cell Signaling Technologies). p-Stat3 (Y705), Stat3 and β-actin (AC15) (Abcam). Ki67 (Dako) and cleaved caspase3 (Cell Signaling Technologies) were used for immunohistochemistry. […] BX795 and GDC0941 were purchased from Sigma.

N#CCNC(=O)c1ccc(-c2ccnc(Nc3ccc(N4CCOCC4)cc3)n2)cc1 [CYT387]
apoptosis (cleaved-caspase 3/7) (SN12C cells): little or no effect on apoptosis
RICTOR phosphorylation [1]: hypophosphorylated at T^1135
STAT3 Y^705 phosphorylation [1]: trended towards hypophosphorylation of STAT3 Y^705
TSC2 phosphorylation (T^1462, S^1798) [1]: hypophosphorylated at two inhibitory phosphoresidues
insulin receptor (INSR) Y^1189 phosphorylation [1]: hyperphosphorylation
ribosomal protein S6 (RPS6) phosphorylation [1]: trended towards hypophosphorylation
expression of genes involved in glycolysis such as PFKB3 and HK2 (ACHN cells): downregulated genes involved in glycolysis
effect of treatment on cell growth [2]: primarily cytostatic
glucose uptake (glycolysis; 18FDG): significantly decreased glucose uptake
lactate production (glycolysis; culture media): reduced lactate production
phosphorylation of ERK 1/2 [3]: no effect on the phosphorylation of ERK 1/2
AKT T308 phosphorylation (readout for PI3K signaling) ([3]; time-dependent): increase in AKT T308
